Results: article PMC4374931 (PLoS ONE, 2015)
Like-named read-outs stand apart in the source and are kept apart here.

How the values were obtained:
androgen receptor [1] = target: androgen receptor; set-up: method as in Wilkinson et al.; conditions: published data; ref Wilkinson et al.; cited from earlier work
in vitro = assay type: cell-based; conditions: human
Method: AIZ-AR cells were seeded in 96-well plates at density 5x10^4 cells per well. […] Following the incubation, MTT assay was measured spectrophotometrically at 540 nm using Tecan Infinite M2000 plate luminometer.

human androgen receptor [2] = target: T1, human androgen receptor (Homo sapiens, UniProt P10275); test: Gene reporter assay in AIZ-AR cells, antagonist mode with DHT (100 nM); assay type: cell-based
Method: (§1) AIZ-AR cells were seeded in 96-well plates at density 5x10^4 cells per well. […] After the treatments, cells were lysed and luciferase activity was measured in 96-well plate format using Tecan Infinite M2000 plate luminometer.
(§2) Dose-response analyses assays were performed in two different experimental layouts. […] Where appropriate, IC50 (half maximal inhibitory concentration) values were calculated.

androgen receptor [3] = target: androgen receptor; set-up: method as in Sedlak et al.; conditions: published data; ref Sedlak et al.; cited from earlier work
human androgen receptor [4] = target: T1, human androgen receptor; test: Gene reporter assay in AIZ-AR cells, antagonist mode with testosterone (10 nM); assay type: cell-based
Method: as §1, §2

human androgen receptor [5] = target: T1, human androgen receptor; test: Gene reporter assay in AIZ-AR cells, agonist mode (luciferase); assay type: cell-based
Method: as §1, §2

androgen receptor [6] = conditions: cited from earlier work
firefly luciferase = test: Inhibition of firefly luciferase in cell lysates; assay type: biochemical; conditions: compounds 10 μM added to lysates of cells treated with 100 nM DHT; data not shown
Method: AIZ-AR cells were treated with 100 nM DHT for 24 hours. Cell lysates containing firefly luciferase, having a catalytic activity corresponding to model ligand-treated cells, were isolated. Tested compounds (10 μM) were added to cell lysates and luciferase activity was measured.

T1 sequence (P10275 whole entry): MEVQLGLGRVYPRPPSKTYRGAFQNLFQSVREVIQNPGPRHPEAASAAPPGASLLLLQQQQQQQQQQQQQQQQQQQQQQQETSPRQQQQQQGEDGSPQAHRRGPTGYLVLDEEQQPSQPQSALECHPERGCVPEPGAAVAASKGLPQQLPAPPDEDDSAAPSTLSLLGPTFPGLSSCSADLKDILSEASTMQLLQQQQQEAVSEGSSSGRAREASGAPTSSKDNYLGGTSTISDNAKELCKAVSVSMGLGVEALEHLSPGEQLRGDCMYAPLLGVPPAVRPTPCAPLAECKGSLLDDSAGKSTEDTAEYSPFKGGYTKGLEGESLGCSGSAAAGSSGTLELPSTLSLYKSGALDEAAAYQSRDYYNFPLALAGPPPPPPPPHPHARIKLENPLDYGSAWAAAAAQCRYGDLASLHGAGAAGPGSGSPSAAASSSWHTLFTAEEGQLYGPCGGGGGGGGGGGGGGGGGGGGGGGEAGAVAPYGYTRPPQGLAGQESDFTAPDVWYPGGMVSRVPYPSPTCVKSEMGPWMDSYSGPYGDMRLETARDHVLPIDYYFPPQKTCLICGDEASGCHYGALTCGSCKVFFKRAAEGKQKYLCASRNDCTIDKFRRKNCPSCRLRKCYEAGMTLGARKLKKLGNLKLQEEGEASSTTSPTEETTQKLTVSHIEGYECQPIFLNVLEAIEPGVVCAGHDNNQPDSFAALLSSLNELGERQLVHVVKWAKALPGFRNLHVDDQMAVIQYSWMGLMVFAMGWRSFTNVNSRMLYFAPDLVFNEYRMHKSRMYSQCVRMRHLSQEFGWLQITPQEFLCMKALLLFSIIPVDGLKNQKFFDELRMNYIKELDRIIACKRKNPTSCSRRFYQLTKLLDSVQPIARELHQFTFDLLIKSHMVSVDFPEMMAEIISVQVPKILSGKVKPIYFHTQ

Row | Structure (SMILES) | Literature Log EC50 (androgen receptor [1]) | viability at 24 h, 0.1 nM (in vitro) | viability at 24 h, 1 nM (in vitro) | viability at 24 h, 10 nM (in vitro) | viability at 24 h, 100 nM (in vitro) | viability at 24 h, 1 μM (in vitro) | viability at 24 h, 10 μM (in vitro) | Literature Log EC50 (androgen receptor [3]) | Log EC50 (human androgen receptor [5]; Clone 8, 24 h) | Log EC50 (human androgen receptor [5]; Clone 14, 24 h) | other results
1 | CC/C(=C(\c1ccc(O)cc1)c1ccc(OCCN(C)C)cc1)c1ccccc1 [4-hydroxytamoxifen] | > -5.00 | 100% | 101.8 ± 1% | 100 ± 5.4% | 104 ± 4.4% | 106 ± 3.8% | 9.2 ± 7.7% | > -5.00 | > -5.00 | > -5.00 | Log IC50 (DHT 100nM) (human androgen receptor [2]; Clone 8, antagonist mode, 24 h): > -5.00; Log IC50 (DHT 100nM) (human androgen receptor [2]; Clone 14, antagonist mode, 24 h): > -5.00; Log IC50 (Testosterone 10 nM) (human androgen receptor [4]; Clone 8, 24 h): > -5.00; Log IC50 (Testosterone 10 nM) (human androgen receptor [4]; Clone 14, 24 h): > -5.00
2 | C[C@]12CCC(=O)C=C1CC[C@@H]1[C@@H]2[C@@H](O)C[C@]2(C=O)[C@@H](C(=O)CO)CC[C@@H]12 [Aldosterone, aldosterone] | > -5.00 |  |  |  |  |  |  | > -5.00 | -6.03 ± 0.04 | -6.11 ± 0.02 | viability at 24 h, 10 μM (in vitro; log c -5, 24 h, MTT, read-out: % of viability): 97 ± 5.4%; viability at 24 h, 1 μM (in vitro; log c -6, 24 h, MTT, read-out: % of viability): 98.6 ± 0.8%; viability at 24 h, 100 nM (in vitro; log c -7, 24 h, MTT, read-out: % of viability): 99 ± 1.4%; viability at 24 h, 10 nM (in vitro; log c -8, 24 h, MTT, read-out: % of viability): 99.4 ± 1%; viability at 24 h, 1 nM (in vitro; log c -9, 24 h, MTT, read-out: % of viability): 110 ± 1.4%; viability at 24 h, 0.1 nM (in vitro; log c -10, 24 h, MTT, read-out: % of viability): 100%; effect on luciferase activity in agonist mode (human androgen receptor [5]; 24 h): did not significantly increased luciferase activity
3 | C[C@]1(O)CC[C@H]2[C@@H]3CCC4=CC(=O)CCC4=C3C=C[C@@]21C [R1881] |  |  |  |  |  |  |  |  |  |  | Response of AR-LUX cell line (induction) (androgen receptor [6]): maximally five-fold induction
4 | O=c1c(-c2ccc(O)cc2)coc2cc(O)cc(O)c12 [Genistein, genistein] | > -5.00 | 100% | 96.5 ± 2.4% | 96.7 ± 3.3% | 103 ± 7.5% | 103 ± 7.5% | 120 ± 6.4% | > -5.00 | -6.62 ± 0.42 | -6.79 ± 0.23 | influence on firefly luciferase catalytic activity (firefly luciferase): significantly influenced luciferase activity; agonist-induced luciferase activity (human androgen receptor [2]; antagonist mode, 10^-5 M, probably due to luciferase inhibition): massive drop; effect on agonist-induced luciferase activity in antagonist mode (human androgen receptor [2]; with DHT (100 nM) or testosterone (10 nM) as agonist, 24 h): strongly augmented agonist-induced luciferase activity
